Several values for one entry are separate records, joined by “and”; a condition that tells them apart may be missing. Equal entries are not always repeated.
System: BDF1 mice, Adenocarcinoma 755 s.c., tumor weight T/C
Test: NCI In Vivo Anticancer Drug Screen. Data for tumor model Adenocarcinoma 755 (subcutaneous) in B6D2F1 (BDF1) mice
Details: endpoint: mean tumor weight, higher = larger tumour
Protocol: The antitumor activity of compounds was measured in mice bearing transplantable tumors. Survival or tumor size were measured and the results are expressed as the measurement made in the treated group (T) divided by the measurement made in the vehicle treated control group (C). The tumor model used in this assay is Adenocarcinoma 755 (subcutaneous) in B6D2F1 (BDF1) mice

[1] = dose: 30.0 mg/kg/injection, schedule: Q01DX011 (ip), vehicle: carboxymethylcellulose (CMC)
[2] = dose: 0.5 mg/kg/injection, schedule: Q01DX011 (ip), vehicle: carboxymethylcellulose (CMC)
[3] = dose: 60.0 mg/kg/injection, schedule: Q01DX011 (ip), vehicle: carboxymethylcellulose (CMC)
[4] = dose: 120.0 mg/kg/injection, schedule: Q01DX011 (ip), vehicle: carboxymethylcellulose (CMC)

With NC(Cc1ccc(N(CCCl)CCCl)cc1)C(=O)O (stereo unspecified) the T/C (dose: 0.32 mg/kg/injection, schedule: Q01DX011 (ip), vehicle: carboxymethylcellulose (CMC)) was 58 % of control, the T/C (dose: 0.62 mg/kg/injection, schedule: Q01DX011 (ip), vehicle: carboxymethylcellulose (CMC)) was 87 % of control and 66 % of control and the T/C (dose: 0.64 mg/kg/injection, schedule: Q01DX011 (ip), vehicle: carboxymethylcellulose (CMC)) was 32 % of control. For the same molecule, the T/C (dose: 0.83 mg/kg/injection, schedule: Q01DX011 (ip), vehicle: carboxymethylcellulose (CMC)) was 46 % of control, the T/C (dose: 1.0 mg/kg/injection, schedule: Q01DX011 (ip), vehicle: methylcellulose (MC)) was 82 % of control and the T/C (dose: 1.28 mg/kg/injection, schedule: Q01DX011 (ip), vehicle: carboxymethylcellulose (CMC)) was 23 % of control. For the same molecule, the T/C (dose: 1.38 mg/kg/injection, schedule: Q01DX011 (ip), vehicle: carboxymethylcellulose (CMC)) was 20 % of control, the T/C (dose: 1.5 mg/kg/injection, schedule: Q01DX011 (ip), vehicle: methylcellulose (MC)) was 26 % of control and the T/C (dose: 1.67 mg/kg/injection, schedule: Q01DX011 (ip), vehicle: carboxymethylcellulose (CMC)) was 39 % of control. For the same molecule, the T/C (dose: 1.73 mg/kg/injection, schedule: Q01DX011 (ip), vehicle: carboxymethylcellulose (CMC)) was 19 % of control, the T/C (dose: 2.0 mg/kg/injection, schedule: Q01DX011 (ip), vehicle: methylcellulose (MC)) was 30 % of control and the T/C (dose: 2.3 mg/kg/injection, schedule: Q01DX011 (ip), vehicle: carboxymethylcellulose (CMC)) was 23 % of control. The T/C (dose: 2.56 mg/kg/injection, schedule: Q01DX011 (ip), vehicle: carboxymethylcellulose (CMC)) was 9 % of control, the T/C (dose: 3.0 mg/kg/injection, schedule: Q01DX011 (ip), vehicle: methylcellulose (MC)) was 14 % of control and the T/C (dose: 3.35 mg/kg/injection, schedule: Q01DX011 (ip), vehicle: carboxymethylcellulose (CMC)) was 9 % of control. For the same molecule, the T/C (dose: 3.45 mg/kg/injection, schedule: Q01DX011 (ip), vehicle: carboxymethylcellulose (CMC)) was 12 % of control, the T/C (dose: 4.0 mg/kg/injection, schedule: Q01DX011 (ip), vehicle: methylcellulose (MC)) was 12 % of control and the T/C (dose: 5.0 mg/kg/injection, schedule: Q01DX011 (ip), vehicle: carboxymethylcellulose (CMC)) was 11 % of control and 30 % of control. For the same molecule, the T/C (dose: 6.0 mg/kg/injection, schedule: Q01DX011 (ip), vehicle: methylcellulose (MC)) was 5 % of control, the T/C (dose: 6.25 mg/kg/injection, schedule: Q01DX011 (ip), vehicle: methylcellulose (MC)) was 5 % of control and the T/C (dose: 6.7 mg/kg/injection, schedule: Q01DX011 (ip), vehicle: carboxymethylcellulose (CMC)) was 4 % of control. The T/C (dose: 6.9 mg/kg/injection, schedule: Q01DX011 (ip), vehicle: carboxymethylcellulose (CMC)) was 8 % of control, the T/C (dose: 8.0 mg/kg/injection, schedule: Q01DX011 (ip), vehicle: methylcellulose (MC)) was 6 % of control and the T/C (dose: 10.0 mg/kg/injection, schedule: Q01DX011 (ip), vehicle: carboxymethylcellulose (CMC)) was 4 % of control.

Cc1nnc2ncnc(N)c2n1 was tested, and the T/C [1] was 46 % of control.

In the case of NS(=O)(=O)c1ncc2[nH]cnc2n1, the T/C (dose: 225.0 mg/kg/injection, schedule: Q01DX011 (ip), vehicle: carboxymethylcellulose (CMC)) was 111 % of control and the T/C (dose: 450.0 mg/kg/injection, schedule: Q01DX011 (ip), vehicle: carboxymethylcellulose (CMC)) was 82 % of control.

NC(=O)c1cn(C2OC(CO)C(O)C2O)c2ncnc(N)c12 (stereo unspecified) was tested, and the T/C (dose: 0.12 mg/kg/injection, schedule: Q01DX011 (ip), vehicle: carboxymethylcellulose (CMC)) was 71 % of control, the T/C (dose: 0.25 mg/kg/injection, schedule: Q01DX011 (ip), vehicle: carboxymethylcellulose (CMC)) was 54 % of control and the T/C [2] was 51 % of control.

CCC(C)N1C(=O)CCC1=O (stereo unspecified) was tested, and the T/C (dose: 37.5 mg/kg/injection, schedule: Q01DX011 (ip), vehicle: saline) was 26 % of control, the T/C (dose: 75.0 mg/kg/injection, schedule: Q01DX011 (ip), vehicle: saline) was 58 % of control and the T/C (dose: 150.0 mg/kg/injection, schedule: Q01DX011 (ip), vehicle: saline) was 95 % of control. The T/C (dose: 300.0 mg/kg/injection, schedule: Q01DX011 (ip), vehicle: saline) was 99 % of control.

For CC(=O)NCCSC(=O)C(=O)SCCNC(C)=O, the T/C (dose: 25.0 mg/kg/injection, schedule: Q01DX011 (ip), vehicle: saline) was 62 % of control, the T/C (dose: 50.0 mg/kg/injection, schedule: Q01DX011 (ip), vehicle: saline) was 65 % of control and the T/C (dose: 200.0 mg/kg/injection, schedule: Q01DX011 (ip), vehicle: saline) was 42 % of control and 63 % of control.

With Nc1nc(N)c(N=O)c(Nc2ccc(I)cc2)n1 the T/C [2] was 70 % of control, the T/C (dose: 1.0 mg/kg/injection, schedule: Q01DX011 (ip), vehicle: carboxymethylcellulose (CMC)) was 79 % of control and 80 % of control and the T/C (dose: 2.0 mg/kg/injection, schedule: Q01DX011 (ip), vehicle: carboxymethylcellulose (CMC)) was 62 % of control. For the same molecule, the T/C (dose: 8.0 mg/kg/injection, schedule: Q01DX011 (ip), vehicle: carboxymethylcellulose (CMC)) was 34 % of control and 54 % of control and 59 % of control, the T/C (dose: 32.0 mg/kg/injection, schedule: Q01DX011 (ip), vehicle: carboxymethylcellulose (CMC)) was 25 % of control and 28 % of control and 40 % of control and the T/C (dose: 64.0 mg/kg/injection, schedule: Q01DX011 (ip), vehicle: carboxymethylcellulose (CMC)) was 17 % of control. For the same molecule, the T/C (dose: 128.0 mg/kg/injection, schedule: Q01DX011 (ip), vehicle: carboxymethylcellulose (CMC)) was 10 % of control.

For CCSc1ncnc2nc[nH]c12, the T/C (dose: 2.5 mg/kg/injection, schedule: Q01DX011 (ip), vehicle: carboxymethylcellulose (CMC)) was 40 % of control and the T/C (dose: 100.0 mg/kg/injection, schedule: Q01DX011 (ip), vehicle: carboxymethylcellulose (CMC)) was 1 % of control.

With CN(C)S(=O)(=O)c1nc2nc[nH]c(=O)c2[nH]1 the T/C [1] was 108 % of control, the T/C [3] was 158 % of control and the T/C [4] was 101 % of control. The T/C (dose: 240.0 mg/kg/injection, schedule: Q01DX011 (ip), vehicle: carboxymethylcellulose (CMC)) was 91 % of control.

With C=CC(COC(C)=O)N1CC1 (stereo unspecified) the T/C (dose: 3.25 mg/kg/injection, schedule: Q01DX011 (ip), vehicle: saline) was 58 % of control and 76 % of control, the T/C (dose: 3.25 mg/kg/injection, schedule: Q01DX011 (oral), vehicle: saline) was 193 % of control and the T/C (dose: 7.5 mg/kg/injection, schedule: Q01DX011 (oral), vehicle: saline) was 228 % of control. For the same molecule, the T/C (dose: 15.0 mg/kg/injection, schedule: Q01DX011 (oral), vehicle: saline) was 157 % of control and the T/C (dose: 30.0 mg/kg/injection, schedule: Q01DX011 (oral), vehicle: saline) was 19 % of control.

With O=C1C=C(c2ccccc2)C(=O)C=C1c1ccccc1 the T/C (dose: 12.5 mg/kg/injection, schedule: Q01DX011 (ip), vehicle: other) was 72 % of control and the T/C (dose: 25.0 mg/kg/injection, schedule: Q01DX011 (ip), vehicle: other) was 48 % of control.

CCC1CN1P(=S)(N1CC1CC)N1CC1CC (stereo unspecified) was tested, and the T/C (dose: 28.0 mg/kg/injection, schedule: Q01DX011 (ip), vehicle: saline) was 104 % of control, the T/C (dose: 56.0 mg/kg/injection, schedule: Q01DX011 (ip), vehicle: saline) was 28 % of control and the T/C (dose: 113.0 mg/kg/injection, schedule: Q01DX011 (ip), vehicle: saline) was 8 % of control.

With CN(CC(=O)O)C(=N)N the T/C (dose: 1500.0 mg/kg/injection, schedule: Q#A X022 (ip), vehicle: water) was 86 % of control and the T/C (dose: 2500.0 mg/kg/injection, schedule: Q#A X022 (ip), vehicle: water) was 66 % of control.

For CCN(CC)C(=O)CSc1nc(N)nc2nc[nH]c12, the T/C (dose: 25.0 mg/kg/injection, schedule: Q01DX011 (ip), vehicle: methylcellulose (MC)) was 45 % of control, the T/C (dose: 50.0 mg/kg/injection, schedule: Q01DX011 (ip), vehicle: methylcellulose (MC)) was 12 % of control and the T/C (dose: 100.0 mg/kg/injection, schedule: Q01DX011 (ip), vehicle: methylcellulose (MC)) was 10 % of control. For the same molecule, the T/C (dose: 200.0 mg/kg/injection, schedule: Q01DX011 (ip), vehicle: methylcellulose (MC)) was 3 % of control and 13 % of control and the T/C (dose: 400.0 mg/kg/injection, schedule: Q01DX011 (ip), vehicle: methylcellulose (MC)) was 4 % of control.

With O=S(=O)(NCc1ccccc1)c1ncnc2nc[nH]c12 the T/C (dose: 12.5 mg/kg/injection, schedule: Q01DX011 (ip), vehicle: carboxymethylcellulose (CMC)) was 73 % of control, the T/C (dose: 25.0 mg/kg/injection, schedule: Q01DX011 (ip), vehicle: carboxymethylcellulose (CMC)) was 3 % of control and the T/C (dose: 50.0 mg/kg/injection, schedule: Q01DX011 (ip), vehicle: carboxymethylcellulose (CMC)) was 1 % of control.

In the case of NS(=O)(=O)c1nc(S(=O)(=O)O)c2[nH]cnc2n1, the T/C [1] was 95 % of control, the T/C [3] was 76 % of control and the T/C [4] was 86 % of control.

For CCCCNCC(C)C(=O)OC (stereo unspecified), the T/C (dose: 15.0 mg/kg/injection, schedule: Q01DX011 (ip), vehicle: methylcellulose (MC)) was 92 % of control, the T/C (dose: 31.0 mg/kg/injection, schedule: Q01DX011 (ip), vehicle: methylcellulose (MC)) was 93 % of control and the T/C (dose: 62.0 mg/kg/injection, schedule: Q01DX011 (ip), vehicle: methylcellulose (MC)) was 87 % of control. The T/C (dose: 125.0 mg/kg/injection, schedule: Q01DX011 (ip), vehicle: methylcellulose (MC)) was 104 % of control and the T/C (dose: 250.0 mg/kg/injection, schedule: Q01DX011 (ip), vehicle: methylcellulose (MC)) was 104 % of control.

In the case of Cn1c(N)nc2c(ncn2C2CC(O)C(CO)O2)c1=O (stereo unspecified), the T/C [1] was 109 % of control, the T/C [3] was 82 % of control and the T/C [4] was 89 % of control.

Reference: PubChem BioAssay AID180 (DTP/NCI, 2004)
